Assay results from patent EP0288176A1, “Tyrosine derivatives and use thereof” (AJINOMOTO CO., INC., priority 1987, dated 1988).

Columns and labels:
[1] = Toxicity: LD50 in mice, perorally administered; conditions: mouse, in vivo, po, read-out: LD₅₀
From the text: Toxicity of O-alkyl tyrosine derivatives is low; each of LD₅₀ in mice perorally administered of O-methyl-N-(4-methylcinnamoyl)-L-tyrosine (S-1), O-methyl-N-(α-fluoro-4-methylcinnamoyl)-L-tyrosine (S-5), O-methyl-N-(β-chloro-4-methylcinnamoyl)-L-tyrosine (S-9) is 3.0 g/kg or higher.

[2] = Activity test: peroral administration with insulin, blood glucose decrease and blood insulin increase; type: in vivo, female mice of ICR-CD-1 strain; set-up: key to percent decrease in blood sugar (%): The symbol + means that there was no decrease in blood sugar; key to degree of increase of blood insulin: the symbol - means that there was no increase in blood insulin; conditions: 0.5 U insulin/10 g bodyweight and 3 mg compound/10 g bodyweight, compared with control group
Experimental: The absorption promoting agents according to the present invention shown in Table 1 were suspended in 0.5% CMC - 0.05 M trisHCl buffer (pH 7.8), and mixed with insulin. The resultant mixture was administered perorally to female mice of ICR-CD-1 strain (aged 5 to 7 weeks) at 0.5 U insulin/10 g bodyweight and 3 mg of the above compound/10 g bodyweight. The percent decrease of blood glucose(%) and the degree of increase of blood insulin after predetermined periods of time were compared with those of the control group, and the results are shown in Table 2.
In the Table, the figures given in the upper rows denote 1) percent of decrease in blood glucose(%) and those in the lower rows in parentheses denote 2) degree of increase in blood insulin level. The symbol + means that there was no decrease in blood sugar and the symbol - means that there was no increase in blood insulin.

| SMILES | LD50 [1] [mg/kg] | percent decrease in blood sugar (%) ([2]; 60 min.) | percent decrease in blood sugar (%) ([2]; 30 min.) | further results |
| --- | --- | --- | --- | --- |
| COc1ccc(C[C@H](NC(=O)C=C(Cl)c2ccc(C)cc2)C(=O)O)cc1 [Compound S-9, O-methyl-N-(β-chloro-4-methylcinnamoyl)-L-tyrosine] | ≥ 3000 |  |  | degree of increase of blood insulin ([2]; 60 min.): - |
| COc1ccc(C[C@@H](NC(=O)C=C(Cl)c2ccc(C)cc2)C(=O)O)cc1 [Compound S-10, O-methyl-N-(β-chloro-4-methylcinnamoyl)-D-tyrosine] |  | + |  |  |
| COc1ccc(C[C@H](NC(=O)C(F)=Cc2ccc(C)cc2)C(=O)O)cc1 [Compound S-5, O-methyl-N-(α-fluoro-4-methycinnamoyl)-L-tyrosine] | ≥ 3000 | + |  |  |
| CCOc1ccc(C[C@H](NC(=O)C=Cc2ccc(C)cc2)C(=O)O)cc1 [Compound S-2, O-ethyl-N-(4-methylcinnamoyl)-L-tyrosine] |  |  | + | degree of increase of blood insulin ([2]; 30 min.): - |
| COc1ccc(C[C@H](NC(=O)C(Cl)=Cc2ccc(C)cc2)C(=O)O)cc1 [Compound S-7, O-methyl-N-(α-chloro-4-methylcinnamoyl)-L-tyrosine] |  | + | + | percent decrease in blood sugar (%) ([2]; 15 min.): 28.6% |
| COc1ccc(C[C@H](NC(=O)C(F)=Cc2ccccc2)C(=O)O)cc1 [Compound S-4, O-methyl-N-(α-fluorocinnamoyl)-L-tyrosine] |  | + |  |  |
| CCOc1ccc(C[C@H](NC(=O)C(F)=Cc2ccc(C)cc2)C(=O)O)cc1 [Compound S-6, O-ethyl-N-(α-fluroro-4-methylcinnamoyl)-L-tyrosine] |  | + | + | degree of increase of blood insulin ([2]; 15 min.): 5.3; percent decrease in blood sugar (%) ([2]; 15 min.): 29.1%; degree of increase of blood insulin ([2]; 30 min.): -; degree of increase of blood insulin ([2]; 60 min.): - |
| COc1ccc(C[C@H](NC(=O)C=Cc2ccc(C)cc2)C(=O)O)cc1 [Compound S-1, O-methyl-N-(4-methylcinnamoyl)-L-tyrosine] | ≥ 3000 |  |  |  |
| COc1ccc(C[C@@H](NC(=O)C(Cl)=Cc2ccc(C)cc2)C(=O)O)cc1 [Compound S-8, O-methyl-N-(α-chloro-4-methylcinnamoyl)-D-tyrosine] |  | + |  |  |
